Data on two substances can be found in paper PMC5814047, “Peptidic inhibitors of insulin-degrading enzyme with potential for dermatological applications discovered via phage display” (PLoS ONE, 2018).

Where “and” joins values, the source holds several entries; their conditions need not be identical. Identical values can stand only once. Ends that are not written are not given here.

Assay [1] concerns the target T1, IDE (Homo sapiens, UniProt P14735).
T1 construct: made in house; host or cells: bacteria
T1 sequence (P14735 1-1019): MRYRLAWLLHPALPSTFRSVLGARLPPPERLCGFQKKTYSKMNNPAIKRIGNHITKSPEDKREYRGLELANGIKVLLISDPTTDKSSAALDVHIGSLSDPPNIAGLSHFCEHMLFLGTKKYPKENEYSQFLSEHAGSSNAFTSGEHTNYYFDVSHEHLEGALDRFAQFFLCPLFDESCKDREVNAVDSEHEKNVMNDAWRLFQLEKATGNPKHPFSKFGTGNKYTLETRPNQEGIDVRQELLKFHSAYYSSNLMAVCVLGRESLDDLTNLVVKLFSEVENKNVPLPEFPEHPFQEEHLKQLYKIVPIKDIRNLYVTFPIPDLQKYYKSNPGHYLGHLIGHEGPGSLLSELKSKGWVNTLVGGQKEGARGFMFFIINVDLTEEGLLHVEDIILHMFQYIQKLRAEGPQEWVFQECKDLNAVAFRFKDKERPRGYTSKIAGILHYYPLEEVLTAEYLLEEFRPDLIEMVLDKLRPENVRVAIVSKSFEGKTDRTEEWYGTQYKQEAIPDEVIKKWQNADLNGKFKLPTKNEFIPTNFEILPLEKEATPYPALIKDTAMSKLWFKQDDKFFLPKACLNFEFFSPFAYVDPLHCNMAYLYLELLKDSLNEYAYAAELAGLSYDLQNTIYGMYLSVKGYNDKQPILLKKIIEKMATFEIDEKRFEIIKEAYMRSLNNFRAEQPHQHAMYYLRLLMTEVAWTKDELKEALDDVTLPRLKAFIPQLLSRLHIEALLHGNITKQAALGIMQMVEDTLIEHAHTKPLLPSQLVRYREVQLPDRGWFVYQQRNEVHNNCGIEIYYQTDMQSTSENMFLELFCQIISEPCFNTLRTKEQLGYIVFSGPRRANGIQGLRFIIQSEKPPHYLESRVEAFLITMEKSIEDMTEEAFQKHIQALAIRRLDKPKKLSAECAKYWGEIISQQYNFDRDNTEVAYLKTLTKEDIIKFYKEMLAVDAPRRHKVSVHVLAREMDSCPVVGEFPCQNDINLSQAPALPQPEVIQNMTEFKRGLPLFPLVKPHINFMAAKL
The experiment in a line: Vulnerability of peptides to degradation by IDE: 0 vs 4 h pre-incubation, then FRET1 assay. The format is biochemical. Conditions: for IC50: FRET1 assay. As for the experimental part: (§1) IDE activity was quantified by monitoring the degradation of Mca-[…](Dnp) (FRET1, 5 μM), fluoresceinated and biotinylated amyloid ß-protein (FAßB; 500 nM) or recombinant human insulin (50 nM) in PBS supplemented with 0.05% BSA. […] In vitro activity assays incorporated recombinant human IDE (1 nM) purified from bacteria. For quantitation of insulin degradation in primary murine skin fibroblasts, cells (1 x 10^5/well) were plated in 96-well plates and maintained in DMEM supplemented with 10% fetal bovine serum (FBS), 2mM glutamine, penicillin and streptomycin. After addition of insulin (10 nM or 100 nM), samples of conditioned medium were removed daily and quickly frozen, then insulin levels were quantified in parallel by ELISA according to manufacturer’s recommendations (Crystal Chem, Downers Grove, IL, USA). Assessment of the activity of P12-3A against a variety of matrix-metalloproteases was conducted using the Matrix Metalloproteinase (MMP) Inhibitor Profiling Kit, Fluorometric RED (Enzo Life Sciences, Inc., Farmingdale, NY, USA) according to manufacturer’s recommendations using the broad-spectrum MMP inhibitor, NNGH, as a positive control.

The target of assay [2] is T1, IDE. Description: biochemical. Conditions: for IC50: insulin ELISA assay, dose-response. The text has this: The six selected peptide sequences (C7C-1, C7C-2, 12–1, 12–2, 12–3 and 12–4) were synthesized, together with a variety of modifications, yielding a total of 25 peptides (Table 1). For the 12-mer peptides, we synthesized variants of the parent peptides truncated at one or both termini, to test whether the entire sequence was necessary or not, in the hope that shorter, and thus less expensive, sequences might be effective. Other modifications included N-terminal acetylation and C-terminal amidation, included to mimic the charge state of the peptides when incorporated in the phage coat protein (Table 1). To assess the extent to which these peptide sequences inhibit IDE, we quantified their potency in protease activity assays using recombinant human IDE and two different substrates: FRET1, a fluorogenic peptide, and recombinant human insulin.
IDE activity was quantified by monitoring the degradation of Mca-[…](Dnp) (FRET1, 5 μM), fluoresceinated and biotinylated amyloid ß-protein (FAßB; 500 nM) or recombinant human insulin (50 nM) in PBS supplemented with 0.05% BSA. FRET1 degradation was measured by changes in fluorescence (λex = 340 nm, λem = 420 nm); FAßB degradation was monitored by fluorescence polarization (λex = 488 nm, λem = 525 nm), as described; and insulin degradation was quantified by ELISA. In vitro activity assays incorporated recombinant human IDE (1 nM) purified from bacteria. For quantitation of insulin degradation in primary murine skin fibroblasts, cells (1 x 10^5/well) were plated in 96-well plates and maintained in DMEM supplemented with 10% fetal bovine serum (FBS), 2mM glutamine, penicillin and streptomycin. After addition of insulin (10 nM or 100 nM), samples of conditioned medium were removed daily and quickly frozen, then insulin levels were quantified in parallel by ELISA according to manufacturer’s recommendations (Crystal Chem, Downers Grove, IL, USA). Assessment of the activity of P12-3A against a variety of matrix-metalloproteases was conducted using the Matrix Metalloproteinase (MMP) Inhibitor Profiling Kit, Fluorometric RED (Enzo Life Sciences, Inc., Farmingdale, NY, USA) according to manufacturer’s recommendations using the broad-spectrum MMP inhibitor, NNGH, as a positive control.

Assay [3] addresses T1, IDE. The experiment in a line: biochemical. Conditions: for Percent activity at 500 uM, Mean: N 4; for IC50: dose-response, FRET1. As to the method: The six selected peptide sequences (C7C-1, C7C-2, 12–1, 12–2, 12–3 and 12–4) were synthesized, together with a variety of modifications, yielding a total of 25 peptides (Table 1). […] Other modifications included N-terminal acetylation and C-terminal amidation, included to mimic the charge state of the peptides when incorporated in the phage coat protein (Table 1).
as §1

Setting [4] is: peptide at 10 uM, insulin 100 nM, normalized to DMSO-only and no-enzyme controls.

For the substance LPWCTPHC [P12-3D], the “Percent Activity (normalized initial velocity of FRET1 hydrolysis)” value was 96.4522% and 96.759% and 99.5993% at IDE [1] (0-hr incubation, Cmpd 0.12207 uM, relative to DMSO-only controls, individual runs); 102.379% and 100.264% and 105.198% on IDE [1] (0-hr incubation, Cmpd 0.488281 uM, relative to DMSO-only controls, individual runs); 104.101% and 99.4736% and 108.303% on IDE [1] (0-hr incubation, Cmpd 1.95312 uM, relative to DMSO-only controls, individual runs); 98.6262% and 96.0429% and 106.212% on IDE [1] (0-hr incubation, Cmpd 7.8125 uM, relative to DMSO-only controls, individual runs); 88.0717% and 83.2988% and 94.9104% on IDE [1] (0-hr incubation, Cmpd 31.25 uM, relative to DMSO-only controls, individual runs); 50.9238% and 50.5662% and 58.9795% on IDE [1] (0-hr incubation, Cmpd 125 uM, relative to DMSO-only controls, individual runs). The “Percent Activity (normalized initial velocity of FRET1 hydrolysis)” value on IDE [1] (0-hr incubation, Cmpd 500 uM, relative to DMSO-only controls, individual runs) was 18.0015% and 16.3891% and 26.5742%; on IDE [1] (4-hr incubation, Cmpd 0.12207 uM, relative to DMSO-only controls, individual runs), 81.980% and 88.388%; at IDE [1] (4-hr incubation, Cmpd 0.488281 uM, relative to DMSO-only controls, individual runs), 82.055% and 87.340%; at IDE [1] (4-hr incubation, Cmpd 1.95312 uM, relative to DMSO-only controls, individual runs), 95.585% and 92.840%; on IDE [1] (4-hr incubation, Cmpd 7.8125 uM, relative to DMSO-only controls, individual runs), 94.853% and 93.557%; at IDE [1] (4-hr incubation, Cmpd 31.25 uM, relative to DMSO-only controls, individual runs), 102.800% and 95.281%. The “Percent Activity (normalized initial velocity of FRET1 hydrolysis)” value at IDE [1] (4-hr incubation, Cmpd 125 uM, relative to DMSO-only controls, individual runs) was 90.299% and 99.861%; on IDE [1] (4-hr incubation, Cmpd 500 uM, relative to DMSO-only controls, individual runs) it was 61.928% and 59.590%. Moreover, on IDE [2] (setting [4]), the “percent decrease in insulin detected by ELISA, Replicate 1” value is on record as 77.7%. Also, the “percent decrease in insulin detected by ELISA, Replicate 2” value on IDE [2] (setting [4]) was 71.2%. The “percent decrease in insulin detected by ELISA, Replicate 3” value on IDE [2] (setting [4]) is 96.7%. Also, the “percent decrease in insulin detected by ELISA, Replicate 4” value at IDE [2] (setting [4]) is listed as 88.5%. The “percent decrease in insulin detected by ELISA, Mean” value on IDE [2] (peptide at 10 uM, insulin 100 nM, normalized to DMSO-only and no-enzyme controls, N=4) is reported as 83.5%. Besides, the “Percent activity at 500 uM, Mean” value on IDE [3] (initial test, percent of initial velocity relative to DMSO-only controls) came out at 3.0%; on IDE [3] (judged as IC50 <100 uM?), 48.5%.
As to VHWDFRQW-NH2 [P12-1B], the Ki at IDE [1] (4-hr incubation, Cheng-Prusoff from IC50, FRET1 KM 10 uM, substrate 5 uM) was found to be 131 µM; at IDE [2] (substrate recombinant human insulin 50 nM, Ki from IC50 with the Cheng-Prusoff equation) it was 7 ± 1.7 µM; at IDE [3] (Cheng-Prusoff, KM 10 uM, substrate concentration 5 uM, read-out: Ki values, Mean), 40.9 µM; at IDE [3] (substrate FRET1 5 μM, Ki from IC50 with the Cheng-Prusoff equation, read-out: Ki FRET1), 41 ± 6.4 µM. Further, the remaining activity at 0.12207 µM at IDE [1] (4 h, 4-hr incubation, Cmpd 0.12207 uM, relative to DMSO-only controls, individual runs, read-out: Percent Activity (normalized initial velocity of FRET1 hydrolysis)) is 90.2%. The remaining activity at 0.488281 µM on IDE [1] (4 h, 4-hr incubation, Cmpd 0.488281 uM, relative to DMSO-only controls, individual runs, read-out: Percent Activity (normalized initial velocity of FRET1 hydrolysis)) came to 82.8%. In addition, the remaining activity at 1.95312 µM at IDE [1] (4 h, 4-hr incubation, Cmpd 1.95312 uM, relative to DMSO-only controls, individual runs, read-out: Percent Activity (normalized initial velocity of FRET1 hydrolysis)) stood at 80.5%. The remaining activity at 7.8125 µM on IDE [1] (4 h, 4-hr incubation, Cmpd 7.8125 uM, relative to DMSO-only controls, individual runs, read-out: Percent Activity (normalized initial velocity of FRET1 hydrolysis)) was determined as 70.1%. For the same substance, the remaining activity at 31.25 µM on IDE [1] (4 h, 4-hr incubation, Cmpd 31.25 uM, relative to DMSO-only controls, individual runs, read-out: Percent Activity (normalized initial velocity of FRET1 hydrolysis)) is 51.8%. Further, the remaining activity at 125 µM on IDE [1] (4 h, 4-hr incubation, Cmpd 125 uM, relative to DMSO-only controls, individual runs, read-out: Percent Activity (normalized initial velocity of FRET1 hydrolysis)) was 36.3%. The remaining activity at 500 µM amounted to 9.02% at IDE [1] (4 h, 4-hr incubation, Cmpd 500 uM, relative to DMSO-only controls, individual runs, read-out: Percent Activity (normalized initial velocity of FRET1 hydrolysis)) and 32.1% on IDE [3] (judged as IC50 <100 uM?, individual replicates, read-out: Percent activity at 500 uM, Replicate 1-4). In addition, the IC50 at IDE [1] (0-hr incubation, mean of runs, read-out: IC50s, Mean) was 61.4 µM; on IDE [1] (4-hr incubation, individual replicates, read-out: IC50s), 200 µM and 193 µM; at IDE [1] (4-hr incubation, mean of 2 replicates, read-out: IC50s, Mean) it was 197 µM; at IDE [2] (Replicates 1-3, read-out: IC50s, individual replicates) it was 20.6 µM and 9.35 µM and 12.2 µM; on IDE [2] (N=3, read-out: IC50s, Mean) it was 14 µM; at IDE [3] (individual runs, read-out: IC50s, Run 1-6), 52.2 µM and 51.3 µM and 80.5 µM. Also, the IC50 at IDE [3] (read-out: IC50s, Mean) stood at 61.4 µM. Also, on IDE [3] (initial test at 500 uM), the “IC50 <500 uM?” value is reported as “YES”.
